From patent US10696686B2, “Herbicidally active (alkynyl-phenyl)-substituted cyclic dione compounds and derivatives thereof” (Syngenta Limited, priority 2013, dated 2020)

Assays:
Assay type in all cases: in vivo
[1] = test system: Abutilon theophrasti (ABUTH); test: Biological Example 1A glasshouse assay, post-emergence application; conditions: 312 h, 13 days after application, read-out: Percentage phytotoxicity ABUTH
Description: (§1) Seeds of a variety of test plant species were sown in standard soil ** in pots. After cultivation for one day (pre-emergence) or after 8 days cultivation (post-emergence) under controlled conditions in a glasshouse (at 24/16° C., day/night; 14 hours light; 65% humidity), the plants were sprayed with an aqueous spray solution derived from the formulation of the technical active ingredient (the test herbicide) in acetone/water (50:50) solution containing 0.5% Tween 20 (polyoxyethylene sorbitan monolaurate, CAS Reg. No. 9005-64-5). The test plants were then grown on under controlled conditions in a glasshouse (at 24/16° C., day/night; 14 hours light; 65% humidity) and watered twice daily. 13 Days after application of the test herbicide, for pre- and post-emergence, the test was evaluated visually for percentage phytotoxicity to each plant (where 100%=total damage to plant; 0%=no damage to plant). Generally, each test herbicide is only tested on 1 plant per plant species for each application rate tested and for each application timing. ** The “standard soil” in Biological Example 1 is usually a “sand” or “sandy loam” type of soil.
(§2) Dicotyledonous weeds: ABUTH=Abutilon theophrasti; AMARE=Amaranthus retroflexus. Grassy monocotyledonous weeds: SETFA=Setaria faberi; ALOMY=Alopecurus myosuroides; ECHCG=Echinochloa crus-galli; ZEAMX=Zea mays (corn, maize, e.g. volunteer corn). For Compound A16, the grassy monocotyledonous weed LOLPE (Lolium perenne) was used in the test insterad of ALOMY.

[2] = test system: Amaranthus retroflexus (AMARE); test: as above; conditions: 312 h, 13 days after application, read-out: Percentage phytotoxicity AMARE
Description: as §1, §2

[3] = test system: Echinochloa crus-galli (ECHCG); test: as above; conditions: 312 h, 13 days after application, read-out: Percentage phytotoxicity ECHCG
Description: as §1, §2

[4] = test system: Lolium perenne (LOLPE); test: as above; conditions: 13 days after application
Description: as §1, §2

[5] = test system: Setaria faberi (SETFA); test: as above; conditions: Setaria faberi, 312 h, post-emergence, 13 days after application, read-out: Percentage phytotoxicity SETFA
Description: as §1, §2

[6] = test system: Zea mays (ZEAMX, corn, maize, e.g. volunteer corn); test: as above; conditions: Zea mays, 312 h, post-emergence, 13 days after application, read-out: Percentage phytotoxicity ZEAMX
Description: as §1, §2

[7] = test system: Abutilon theophrasti (ABUTH); test: Biological Example 1B glasshouse assay, pre-emergence application; conditions: 250 g/ha, 13 days after application
Description: as §1, §2

[8] = test system: Amaranthus retroflexus (AMARE); test: as above; conditions: 250 g/ha, 13 days after application
Description: as §1, §2

[9] = test system: Echinochloa crus-galli (ECHCG); test: as above; conditions: 250 g/ha, 13 days after application
Description: as §1, §2

[10] = test system: Lolium perenne (LOLPE); test: as above; conditions: 250 g/ha, 13 days after application
Description: as §1, §2

[11] = test system: Setaria faberi (SETFA); test: as above; conditions: 250 g/ha, 13 days after application
Description: as §1, §2

[12] = test system: Zea mays (ZEAMX, corn, maize, e.g. volunteer corn); test: as above; conditions: 250 g/ha, 13 days after application
Description: as §1, §2

[13] = test system: grassy (in particular warm climate grassy) monocotyledonous weeds; test: Post-emergence herbicidal activity, summary statements on Biological Examples 1 to 3; conditions: applied at about 250 g/ha post-emergence; Biological Examples 1 and 2
Description: as §1
Seeds of a variety of monocotyledonous and dicotyledonous test plants are sown in standard soil in pots. The plants are cultivated for one day (for pre-emergence) or for about 12 days (range=10-13 days) (for post-emergence) under controlled conditions in a glasshouse (warm climate species at 24/18° C., cool climate species at 20/16° C., both at day/night; 16 hours light; 65% humidity). An “instant formulation”, known as the “IF50”, containing 50 g/litre (i.e. 5% w/v) of the “technical” (i.e. unformulated) active ingredient is prepared by dissolving the active ingredient in a mixture of organic solvents and emulsifier, details of which are provided in the Table below. […]
The test plants are then grown on, in a glasshouse (greenhouse) under controlled conditions (at either 24/18° C. or 20/16° C. (day/night) as mentioned above; 16 hours light; 65% humidity) and are watered twice daily. Either 14 or 15 days after application of the herbicide (14 or 15 DAA) (for post-emergence), or 20 days after application of the herbicide (20 DAA) (for pre-emergence), the test plants are evaluated visually, and an assessed percentage phytotoxicity score is given for each herbicidal application on each plant species (where 100%=total damage to plant; 0%=no damage to plant). […]

SMILES: CC#Cc1cc(F)c(C2C(=O)C3C(C2=O)[C@H]2CC[C@@H]3O2)c(OC)c1 (stereo partly shown) [Compound A16]
- pest or weed control at 30 g/ha ([1]; 30 g/ha): 0%
- pest or weed control at 250 g/ha ([1]; 250 g/ha): 70%
- pest or weed control at 30 g/ha ([2]; 30 g/ha): 0%
- pest or weed control at 250 g/ha ([2]; 250 g/ha): 10%
- pest or weed control at 30 g/ha ([3]; 30 g/ha): 90%
- pest or weed control at 250 g/ha ([3]; 250 g/ha): 100%
- Percentage phytotoxicity LOLPE ([4]; 30 g/ha): 70%
- Percentage phytotoxicity LOLPE ([4]; 250 g/ha): 90%
- pest or weed control at 30 g/ha ([5]; 30 g/ha): 70%
- pest or weed control at 250 g/ha ([5]; 250 g/ha): 90%
- pest or weed control at 30 g/ha ([6]; 30 g/ha): 90%
- pest or weed control at 250 g/ha ([6]; 250 g/ha): 100%
- Percentage phytotoxicity ABUTH [7]: 0%
- Percentage phytotoxicity AMARE [8]: 30%
- Percentage phytotoxicity ECHCG [9]: 90%
- Percentage phytotoxicity LOLPE [10]: 90%
- Percentage phytotoxicity SETFA [11]: 70%
- Percentage phytotoxicity ZEAMX [12]: 90%
- post-emergent herbicidal potency against grassy monocotyledonous weeds (in words) [13]: potent post-emergent herbicides
